Some test systems named below: DMS-114; SNB-78; M19-MEL; DLD-1; RXF 631; DMS-273; LXFL 529; HOP-18; XF498.
What all share (assay): DTP human tumour cell line panel, 48 h

This is an account of results in ChEMBL document CHEMBL1201862, “PubChem BioAssay data set” (2004).

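Interpolation was linear, between the two tested concentrations surrounding the appropriate level; five concentrations were tested over 48 hours in 96-well plates. The concentration for 50% growth inhibition is given as GI50.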 Active and inactive are the calls of the source. No stated cut-off is given here; in the data, active = GI50 up to about 1.1 µM and inactive = higher.

For `CCCCCCCCCCCCC(=O)CCCCC(=O)O`, the GI50 is 18.8 µM (inactive) in the assay with DMS-114; 72.6 µM (inactive) with SNB-78; 18.2 µM (inactive) in the assay with M19-MEL; 17.9 µM (inactive) with DLD-1; 18.7 µM (inactive) with RXF 631; 33.4 µM (inactive) with DMS-273. In addition, the GI50 with LXFL 529 is 18 µM (inactive); with HOP-18, 16 µM (inactive).

Consider `O=C1CCC2(c3ccc(Cl)cc3)Nc3ccccc3N12` (stereo unspecified), for which the GI50 is 45.2 µM (inactive) with DMS-114; > 100 µM (inactive) in the assay with SNB-78; 69 µM (inactive) in the assay on M19-MEL; 71 µM (inactive) with DLD-1; 77.1 µM (inactive) with XF498; > 100 µM (inactive) in the assay with RXF 631. For the same molecule, the GI50 in the assay with LXFL 529 is 47 µM (inactive); in the assay with HOP-18 it was 50.2 µM (inactive).

Turning to `CNS(=O)(=O)NN(C)S(=O)(=O)c1ccc(Cl)cc1`, the GI50 with DMS-114, in the assay with M19-MEL, with DLD-1, with XF498, in the assay with RXF 631 and in the assay with DMS-273 was > 100 µM (inactive) throughout. Further, the GI50 in the assay on LXFL 529 was > 100 µM (inactive).

Consider `Cc1coc2c1C(=O)C(=O)c1ccccc1-2`, for which the 50% growth inhibitory concentration (GI50) in the assay on DMS-114 was 0.161 µM (active); in the assay on SNB-78, 1.73 µM (inactive); in the assay with DLD-1, 1.98 µM (inactive); with DMS-273, 1.54 µM (inactive); with LXFL 529, 0.403 µM (active); in the assay with HOP-18, < 0.01 µM (active).

`O=C(NC(Cc1ccccc1)C(=O)CCl)OCc1ccccc1` (stereo unspecified): the GI50 is 1.22 µM (inactive) with DMS-114; 24.8 µM (inactive) with SNB-78; 13.7 µM (inactive) in the assay with M19-MEL; 9.64 µM (inactive) in the assay on DLD-1; 5.02 µM (inactive) with DMS-273; 3.6 µM (inactive) in the assay on LXFL 529. Further, in the assay on HOP-18, the GI50 was 11.7 µM (inactive).

Consider `OC(Cn1cncn1)(Cn1cncn1)c1ccc(Cl)cc1Cl`, for which the GI50 in the assay with DMS-114, with SNB-78, in the assay with M19-MEL, with DLD-1, with DMS-273 and with LXFL 529 was > 100 µM (inactive) in each case. Also, the GI50 in the assay with HOP-18 was > 100 µM (inactive).

In the case of `N#CCC(=O)N/N=C1/C(=O)N(c2cc(Cl)ccc2Cl)C(=O)C(=O)C1c1nc2ccccc2s1` (stereo unspecified), the GI50 in the assay on DMS-114 is > 100 µM (inactive); with SNB-78, > 100 µM (inactive); in the assay on M19-MEL, 77.1 µM (inactive); with DLD-1, > 100 µM (inactive); in the assay with RXF 631 it was 55.3 µM (inactive); with DMS-273, > 100 µM (inactive). Also, the GI50 with LXFL 529 is > 100 µM (inactive); in the assay on HOP-18, 72.9 µM (inactive).

`C/C(CCN(C)C)=N\OC(=O)c1ccccc1`: the GI50 in the assay with DMS-114, with SNB-78, in the assay on M19-MEL, with DLD-1, in the assay on DMS-273 and with LXFL 529 was > 100 µM (inactive) in each case. The GI50 with HOP-18 was 1.66 µM (inactive).

As to `COc1cc2c(cc1OC)[C@@H](C(O)c1ccccc1)NCC2` (stereo partly specified), the GI50 in the assay with DMS-114, with SNB-78, with M19-MEL, with DLD-1, in the assay with XF498 and with RXF 631 was > 100 µM (inactive) in each case. In addition, the GI50 in the assay with DMS-273 and with LXFL 529 was > 100 µM (inactive) in each case.

Take `CCCCCOc1ccc(/C=N\c2ccc(-c3ccc(/N=C\c4ccc(OCCCCC)cc4)c(OC)c3)cc2OC)cc1`: the GI50 with DMS-114 was > 100 µM (inactive); in the assay with SNB-78, > 84.9 µM (inactive); with M19-MEL, > 100 µM (inactive); in the assay on DLD-1, > 100 µM (inactive); in the assay on XF498, > 100 µM (inactive); in the assay with DMS-273 it was > 100 µM (inactive). The GI50 in the assay on HOP-18 was 24.3 µM (inactive).

`CC[C@@]1(O)C[C@H](OC2CC(N(C)C)C(OC3CC(O)C(OC4CC(O)C(O)C(C)O4)C(C)O3)C(C)O2)c2c(cc3c(c2O)C(=O)c2c(O)ccc(O)c2C3=O)[C@H]1C(=O)OC` (stereo partly specified): the GI50 is 0.0853 µM (active) with DMS-114; 0.0776 µM (active) in the assay with SNB-78; 0.0121 µM (active) in the assay with M19-MEL; 0.0328 µM (active) with DLD-1; 0.0189 µM (active) in the assay with XF498; 0.0108 µM (active) with DMS-273. Moreover, in the assay on HOP-18, the GI50 was 0.136 µM (active).

On to `COC(OC)c1cc2c(cc1C=O)OCO2`, for which the GI50 in the assay with DMS-114 was > 100 µM (inactive); in the assay on SNB-78, > 100 µM (inactive); in the assay with M19-MEL, > 100 µM (inactive); in the assay on DLD-1, 34.9 µM (inactive); in the assay on DMS-273, > 100 µM (inactive).

In the case of `CNS(=O)(=O)NN(C)S(=O)(=O)c1ccc(C)cc1`, the GI50 in the assay on DMS-114, with M19-MEL and in the assay on DLD-1 was > 100 µM (inactive) each time.

Consider `CC(=O)N(CCN)CCN`, for which the GI50 in the assay with DMS-114 was > 10 µM (inactive); with SNB-78, > 10 µM (inactive); in the assay with M19-MEL, > 10 µM (inactive); in the assay on DLD-1 it was > 100 µM (inactive); in the assay with XF498, > 100 µM (inactive); with RXF 631, > 10 µM (inactive). Besides, the GI50 in the assay on DMS-273 and in the assay on LXFL 529 was > 10 µM (inactive) throughout.

Take `COc1ccc(C2C(Cl)C(=O)N2NC(=O)Cc2ccccc2)cc1OC` (stereo unspecified): the GI50 in the assay on DMS-114, in the assay with SNB-78, in the assay on M19-MEL, with DLD-1, in the assay on XF498 and in the assay with DMS-273 was > 100 µM (inactive) in each case. Moreover, the GI50 in the assay on HOP-18 is > 100 µM (inactive).

On to `CC(=O)NNc1nc(C)c(C(=O)NNC(=O)C(=O)Nc2c(C)cccc2C(C)(C)C)s1`, for which the GI50 in the assay on SNB-78 was > 100 µM (inactive); in the assay on M19-MEL it was 48 µM (inactive); in the assay on DLD-1, 61.8 µM (inactive); in the assay with XF498, > 100 µM (inactive); in the assay on DMS-273, 47.1 µM (inactive); in the assay with LXFL 529 it was 69.8 µM (inactive).

For `Cc1ccc(C2CC(c3ccc([N+](=O)[O-])cc3)=Nc3ccccc3S2)cc1` (stereo unspecified), the GI50 is 16.5 µM (inactive) in the assay on DMS-114; 18.6 µM (inactive) in the assay on M19-MEL; 25.5 µM (inactive) in the assay with DLD-1; 19 µM (inactive) in the assay with XF498; 24.5 µM (inactive) with RXF 631; 12.1 µM (inactive) with LXFL 529. The GI50 with HOP-18 was 48.4 µM (inactive).

`CCC(C)n1c(C)nc2c1C(=O)c1ccccc1C2=O` (stereo unspecified): the GI50 with SNB-78 was > 100 µM (inactive); in the assay with M19-MEL, 18.2 µM (inactive); in the assay on DLD-1, 27.2 µM (inactive); in the assay with XF498, 44.8 µM (inactive); in the assay on DMS-273, 34.2 µM (inactive); with LXFL 529 it was 33.4 µM (inactive).

`O=c1c2cccnc2ncn1CCCN1CCCCC1`: the GI50 in the assay on DMS-114, with SNB-78, with M19-MEL, in the assay on DLD-1, in the assay on XF498 and with DMS-273 was > 100 µM (inactive) each time.

In the case of `CC1=C(Cl)C=CP(=O)(OC(C)C)C1` (stereo unspecified), the GI50 with DMS-114 is > 100 µM (inactive); in the assay with SNB-78, > 100 µM (inactive); with M19-MEL it was > 100 µM (inactive); with DLD-1 it was 35.7 µM (inactive); in the assay with RXF 631 it was 33.1 µM (inactive); in the assay on LXFL 529, > 100 µM (inactive). In addition, in the assay with HOP-18, the GI50 was > 100 µM (inactive).

For the molecule `CCOc1cc(/C=C/C=C/c2ccc(N(C)C)cc2)[s+]c2ccccc12`, the GI50 with DMS-114 is 5.27 µM (inactive); with SNB-78, 25.5 µM (inactive); in the assay on M19-MEL, 26.2 µM (inactive); in the assay with DLD-1 it was 23.9 µM (inactive); in the assay on XF498, 20.8 µM (inactive); in the assay on RXF 631, 33 µM (inactive). The GI50 in the assay on DMS-273 was 9.31 µM (inactive); in the assay with LXFL 529 it was 12.3 µM (inactive); in the assay with HOP-18, 99.1 µM (inactive).

For the molecule `Cc1nc2c(=O)[nH]c(=O)n(C)c2[nH]c1=O.c1ccncc1`, the GI50 with M19-MEL, in the assay on DLD-1, in the assay on DMS-273 and in the assay on LXFL 529 was > 100 µM (inactive) each time.

As to `COc1ccc(NN=C2C(=O)CCC2=O)cc1`, the GI50 with DMS-114, with SNB-78, in the assay on M19-MEL, with DLD-1, in the assay on RXF 631 and in the assay on DMS-273 was > 100 µM (inactive) each time. Besides, the GI50 in the assay on HOP-18 is > 100 µM (inactive).

As for `CC(=O)Nc1ccc(/C=C/c2ccc(NC(=O)Nc3ccc(/C=C/c4ccc(NC(C)=O)cc4S(=O)(=O)O)c(S(=O)(=O)O)c3)cc2S(=O)(=O)O)c(S(=O)(=O)O)c1`, the GI50 is 60.5 µM (inactive) in the assay on DMS-114; > 100 µM (inactive) in the assay on SNB-78; > 100 µM (inactive) in the assay on M19-MEL; > 100 µM (inactive) in the assay on DLD-1; > 48 µM (inactive) with XF498; > 87.9 µM (inactive) with DMS-273. The GI50 in the assay with HOP-18 was > 95.5 µM (inactive).

Regarding `CC(C(=O)OCc1ccccc1)N(Cc1ccccc1)Cc1ccccc1` (stereo unspecified), the GI50 was 60.7 µM (inactive) with DMS-114; > 100 µM (inactive) in the assay on SNB-78; > 100 µM (inactive) in the assay on DLD-1; 24 µM (inactive) with XF498; 57.9 µM (inactive) in the assay on DMS-273; > 100 µM (inactive) in the assay with LXFL 529.

Consider `c1ccc(-c2ccnc3c2ccc2c(-c4ccccc4)ccnc23)cc1`, for which the concentration for 50% growth inhibition (GI50) with DMS-114 is 0.382 µM (active); with SNB-78, 5.05 µM (inactive); with M19-MEL, 1.74 µM (inactive); in the assay on DLD-1, 2.47 µM (inactive); in the assay with RXF 631 it was 0.604 µM (active); in the assay on DMS-273, 2.56 µM (inactive). For the same molecule, the concentration for 50% growth inhibition (GI50) with LXFL 529 is 0.71 µM (active); in the assay on HOP-18, 2.34 µM (inactive).

A word on the GI50: it is the concentration that inhibits growth by half.
